Organism: Rattus norvegicus
Experiment: DrugMatrix - Regimen: Daily Repeat
Format: toxicity, organism-based, Sprague-Dawley
Set-up: regimen Daily Repeat, gender Male, age 6-8 weeks
Conditions: in vivo, po, route oral GAVAGE, vehicle .5 % CMC; for ABSOLUTE BASOPHIL / ABSOLUTE EOSINOPHIL / ABSOLUTE LYMPHOCYTE / ABSOLUTE MONOCYTE / ABSOLUTE SEGMENTED NEUTROPHIL / BASOPHIL / EOSINOPHIL / ERYTHROCYTE COUNT / HEMATOCRIT / HEMOGLOBIN / LEUKOCYTE COUNT / LYMPHOCYTE / MEAN CORPUSCULAR HEMOGLOBIN / MEAN CORPUSCULAR HEMOGLOBIN CONCENTRATION / MEAN CORPUSCULAR VOLUME / MONOCYTE / NEUTROPHIL / NUCLEATED RED BLOOD CELLS / PLATELET COUNT: tissue Blood; for ALANINE AMINOTRANSFERASE / ALBUMIN / ALKALINE PHOSPHATASE / ASPARTATE AMINOTRANSFERASE / BLOOD UREA NITROGEN / CARBON DIOXIDE / CHLORIDE / CHOLESTEROL / CREATINE PHOSPHOKINASE / CREATININE / GLUCOSE / LACTATE DEHYDROGENASE / LIPASE / PHOSPHORUS / POTASSIUM / SODIUM / TOTAL BILIRUBIN / TOTAL PROTEIN / URIC ACID: tissue Plasma
[1] = 0 mg/kg, 72 h, dose level Control, time 3 day
[2] = 0 mg/kg, 120 h, dose level Control, time 5 day
[3] = 50 mg/kg, 72 h, dose level Low, time 3 day

SMILES: CC(/C=C1\SC(=S)N(CC(=O)O)C1=O)=C\c1ccccc1
- ABSOLUTE BASOPHIL [1]: 0 CELLS/uL
- ABSOLUTE EOSINOPHIL [1]: 0 CELLS/uL
- ABSOLUTE LYMPHOCYTE [1]: 12191.17 CELLS/uL
- ABSOLUTE MONOCYTE [1]: 183.17 CELLS/uL
- ABSOLUTE SEGMENTED NEUTROPHIL [1]: 1192.33 CELLS/uL
- BASOPHIL [1]: 0%
- EOSINOPHIL [1]: 0%
- ERYTHROCYTE COUNT [1]: 5.51 x10E6/uL
- HEMATOCRIT [1]: 35.45%
- HEMOGLOBIN [1]: 13.82 G/DL
- LEUKOCYTE COUNT [1]: 13.57 x10E3/uL
- LYMPHOCYTE [1]: 89.83%
- MEAN CORPUSCULAR HEMOGLOBIN [1]: 25.1 pg
- MEAN CORPUSCULAR HEMOGLOBIN CONCENTRATION [1]: 38.98 G/DL
- MEAN CORPUSCULAR VOLUME [1]: 64.42 fL
- MONOCYTE [1]: 1.33%
- NEUTROPHIL [1]: 8.83%
- NUCLEATED RED BLOOD CELLS [1]: 0 /100WBC
- PLATELET COUNT [1]: 1118.17 x10E3/uL
- ALANINE AMINOTRANSFERASE [1]: 55 u/L
- ALBUMIN [1]: 4.15 G/DL
- ALKALINE PHOSPHATASE [1]: 449.5 u/L
- ASPARTATE AMINOTRANSFERASE [1]: 112.83 u/L
- BLOOD UREA NITROGEN [1]: 17.33 mg/dL
- CARBON DIOXIDE [1]: 29.5 mmol/L
- CHLORIDE [1]: 101 MEQ/L
- CHOLESTEROL [1]: 70 mg/dL
- CREATINE PHOSPHOKINASE [1]: 1325.83 u/L
- CREATININE [1]: 0.18 mg/dL
- GLUCOSE [1]: 171.5 mg/dL
- LACTATE DEHYDROGENASE [1]: 386 u/L
- LIPASE [1]: 10 u/L
- PHOSPHORUS [1]: 11.57 mg/dL
- POTASSIUM [1]: 6.21 MEQ/L
- SODIUM [1]: 141.65 MEQ/L
- TOTAL BILIRUBIN [1]: 0.15 mg/dL
- TOTAL PROTEIN [1]: 5.75 G/DL
- URIC ACID [1]: 1.28 mg/dL
- ABSOLUTE BASOPHIL [2]: 0 CELLS/uL
- ABSOLUTE EOSINOPHIL [2]: 138.17 CELLS/uL
- ABSOLUTE LYMPHOCYTE [2]: 13283.17 CELLS/uL
- ABSOLUTE MONOCYTE [2]: 303.83 CELLS/uL
- ABSOLUTE SEGMENTED NEUTROPHIL [2]: 1308.17 CELLS/uL
- BASOPHIL [2]: 0%
- EOSINOPHIL [2]: 1%
- ERYTHROCYTE COUNT [2]: 5.32 x10E6/uL
- HEMATOCRIT [2]: 33.8%
- HEMOGLOBIN [2]: 13.63 G/DL
- LEUKOCYTE COUNT [2]: 15.03 x10E3/uL
- LYMPHOCYTE [2]: 88.33%
- MEAN CORPUSCULAR HEMOGLOBIN [2]: 25.68 pg
- MEAN CORPUSCULAR HEMOGLOBIN CONCENTRATION [2]: 40.35 G/DL
- MEAN CORPUSCULAR VOLUME [2]: 63.67 fL
- MONOCYTE [2]: 1.83%
- NEUTROPHIL [2]: 8.83%
- NUCLEATED RED BLOOD CELLS [2]: 0 /100WBC
- PLATELET COUNT [2]: 1097.5 x10E3/uL
- ALANINE AMINOTRANSFERASE [2]: 54.5 u/L
- ALBUMIN [2]: 4.27 G/DL
- ALKALINE PHOSPHATASE [2]: 337 u/L
- ASPARTATE AMINOTRANSFERASE [2]: 94.67 u/L
- BLOOD UREA NITROGEN [2]: 17 mg/dL
- CARBON DIOXIDE [2]: 28.33 mmol/L
- CHLORIDE [2]: 101.5 MEQ/L
- CHOLESTEROL [2]: 71.33 mg/dL
- CREATINE PHOSPHOKINASE [2]: 628.17 u/L
- CREATININE [2]: 0.19 mg/dL
- GLUCOSE [2]: 177.83 mg/dL
- LACTATE DEHYDROGENASE [2]: 500.5 u/L
- LIPASE [2]: 9.5 u/L
- PHOSPHORUS [2]: 12.3 mg/dL
- POTASSIUM [2]: 5.63 MEQ/L
- SODIUM [2]: 143.03 MEQ/L
- TOTAL BILIRUBIN [2]: 0.2 mg/dL
- TOTAL PROTEIN [2]: 6.02 G/DL
- URIC ACID [2]: 1.5 mg/dL
- ABSOLUTE BASOPHIL [3]: 0 CELLS/uL
- ABSOLUTE EOSINOPHIL [3]: 0 CELLS/uL
- ABSOLUTE LYMPHOCYTE [3]: 10745.33 CELLS/uL
- ABSOLUTE MONOCYTE [3]: 122.33 CELLS/uL
- ABSOLUTE SEGMENTED NEUTROPHIL [3]: 899 CELLS/uL
- BASOPHIL [3]: 0%
- EOSINOPHIL [3]: 0%
- ERYTHROCYTE COUNT [3]: 5.12 x10E6/uL
- HEMATOCRIT [3]: 32.47%
- HEMOGLOBIN [3]: 13.07 G/DL
- LEUKOCYTE COUNT [3]: 11.77 x10E3/uL
- LYMPHOCYTE [3]: 91.33%
- MEAN CORPUSCULAR HEMOGLOBIN [3]: 25.57 pg
- MEAN CORPUSCULAR HEMOGLOBIN CONCENTRATION [3]: 40.23 G/DL
- MEAN CORPUSCULAR VOLUME [3]: 63.67 fL
- MONOCYTE [3]: 1%
- NEUTROPHIL [3]: 7.67%
- NUCLEATED RED BLOOD CELLS [3]: 0.33 /100WBC
- PLATELET COUNT [3]: 1123 x10E3/uL
- ALANINE AMINOTRANSFERASE [3]: 53.67 u/L
- ALBUMIN [3]: 4.27 G/DL
- ALKALINE PHOSPHATASE [3]: 336 u/L
- ASPARTATE AMINOTRANSFERASE [3]: 85.33 u/L
- BLOOD UREA NITROGEN [3]: 16 mg/dL
- CARBON DIOXIDE [3]: 27.33 mmol/L
- CHLORIDE [3]: 101.67 MEQ/L
- CHOLESTEROL [3]: 75.67 mg/dL
- CREATINE PHOSPHOKINASE [3]: 291.33 u/L
- CREATININE [3]: 0.17 mg/dL
- GLUCOSE [3]: 165.67 mg/dL
- LACTATE DEHYDROGENASE [3]: 165.67 u/L
- LIPASE [3]: 9.33 u/L
- PHOSPHORUS [3]: 12.33 mg/dL
- POTASSIUM [3]: 6.32 MEQ/L
- SODIUM [3]: 143.7 MEQ/L
- TOTAL BILIRUBIN [3]: 0.1 mg/dL
- TOTAL PROTEIN [3]: 5.77 G/DL
- URIC ACID [3]: 2.2 mg/dL
